Measured values from patent publication US20230218571A1 (Thiogenesis Therapeutics, Inc., priority 2020, published 2023).

Legend:
SARS-CoV-2 [1] = assay: Syrian hamster SARS-CoV-2 infection model; assay type: in vivo; details: 60, 90 or 120 mg/kg per os once a day for 7 days
Method: The efficacy of cysteamine-pantetheine disulfide (compound 1) is assessed in the Syrian hamster model. Maximal clinical signs of rapid breathing, weight loss, histopathological changes from the initial exudative phase of diffuse alveolar damage with extensive apoptosis to the later proliferative phase of tissue repair, airway and intestinal involvement with virus nucleocapsid protein expression, high lung viral load, and spleen and lymphoid atrophy associated with marked cytokine activation are observed within the first week of virus challenge. The lung virus titer is between 10^5-10^7 TCID50/g. Challenged index hamsters can consistently infected naïve contact hamsters housed within the same cage, resulting in similar pathology but not weight loss. All infected hamsters can recover and develop mean serum neutralizing antibody titer ≥1:427 fourteen days post-challenge. Immunoprophylaxis with early convalescent serum can achieve significant decrease in lung viral load but not in lung pathology.
Three groups of 3 Syrian hamsters infected by SARS-CoV-2 per group receive cysteamine-pantetheine disulfide (compound 1) per os once a day for 7 days. The first group receives 60 mg/kg, second group 90 mg/kg and third group 120 mg/kg. Clinical status, biological parameters and viral load are characterized every day.

SARS-CoV-2 [2] = assay: Single-dose/multiple dose open-label study in patients with COVID-19; assay type: in vivo, human; details: patients infected with SARS-CoV-2, end of study
Method: A single-dose/multiple dose, open-labeled, non-randomized, two-period study of Cysteamine-Pantetheine Disulfide (compound 1) in […] (male and female) with COVID-19 under fasting or fed conditions is performed. Prior to treatment, patients undergo screening to determine study eligibility (Day-1).
Pharmacodynamic Evaluations: SARS-CoV-2 viral load will be obtained from samples collected from Day 0 to Day 15 according to the Schedule of Events.

[3] = administered to fasting patients; cited from earlier work

| Compound | recovery (SARS-CoV-2 [1]) | symptoms of infection (SARS-CoV-2 [1]) | viral load (SARS-CoV-2 [1]) | risk of severe COVID-19 outcomes (pneumonitis, ARDS, respiratory failure, septic shock, organ failure, cytokine storm, death) (SARS-CoV-2 [2]) | inter-patient variation in cysteamine plasma levels [3] |
| --- | --- | --- | --- | --- | --- |
| CC(C)(CO)[C@@H](O)C(=O)NCCC(=O)NCCSSCCN [compound 1, cysteamine-(R)-pantetheine disulfide] | more rapid recovery | less severe symptoms of infection | lower viral load | lower risk |  |
| NCCS [cysteamine, 2-aminoethanethiol] |  |  |  |  | up to four fold |
